Assay results taken from PubChem BioAssay (NCI).
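GI50 is the concentration that inhibits growth by half. At the TGI there is no net growth.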

Legend:
Assay in all cases: NCI tumour cell line growth inhibition, 384-well format; in the data active = GI50 below about 0.43 µM; inactive = the rest
[1] = system: M14 melanoma
[2] = system: COLO 205 colon
[3] = system: ACHN renal
[4] = system: SF-539 CNS
[5] = system: SN12C renal
[6] = system: RXF 393 renal
[7] = system: RPMI-8226 leukemia
[8] = system: HCT-116 colon
[9] = system: A549 NSCLC
[10] = system: HOP-62 NSCLC
[11] = system: NCI-H522 lung
[12] = system: OVCAR-3 ovarian
[13] = system: MOLT-4 leukemia
[14] = system: MDA-MB-468 breast
[15] = system: EKVX NSCLC
[16] = system: HCC-2998 colon
[17] = system: PC-3 prostate
[18] = system: 786-0 renal
[19] = system: NCI-H460 NSCLC
[20] = system: TK-10 renal
[21] = system: NCI-H23 lung
[22] = system: K-562 leukemia
[23] = system: SNB-19 CNS
[24] = system: UACC-62 melanoma
[25] = system: KM12 colon
[26] = system: SW-620 colon
[27] = system: MDA-MB-435 melanoma
[28] = system: SF-295 CNS
[29] = system: NCI/ADR-RES ovarian
[30] = system: CCRF-CEM leukemia
[31] = system: SF-268 CNS
[32] = system: UACC-257 melanoma
[33] = system: MDA-MB-231 breast
[34] = system: UO-31 renal
[35] = system: SR leukemia
[36] = system: CAKI-1 renal
[37] = system: BT-549 breast
[38] = system: SK-OV-3 ovarian
[39] = system: MCF7 breast
[40] = system: HOP-92 NSCLC
[41] = system: NCI-H226 lung
[42] = system: OVCAR-4 ovarian
[43] = system: IGROV1 ovarian
[44] = system: SNB-75 CNS
[45] = system: HT29 colon
[46] = system: DU-145 prostate
[47] = system: OVCAR-5 ovarian
[48] = system: A498 renal
[49] = system: HCT-15 colon
[50] = system: HL-60(TB) leukemia
[51] = system: NCI-H322M lung
[52] = system: SK-MEL-2 melanoma
[53] = system: MALME-3M melanoma
[54] = system: SK-MEL-28 melanoma
[55] = system: LOX IMVI melanoma
[56] = system: HS 578T breast
[57] = system: T-47D breast
[58] = system: OVCAR-8 ovarian
[59] = system: SK-MEL-5 melanoma
[60] = system: U251 glioblastoma

Cn1ncnc1[C@H]1c2n[nH]c(=O)c3cc(F)cc(c23)N[C@@H]1c1ccc(F)cc1
2.56 µM: TGI [28]
0.0102 µM: TGI [35]
> 66.3 µM: TGI [19]
1.27 µM: TGI [30]
29.5 µM: TGI [44]
1.99 µM: TGI [50]
1.13 µM: TGI [14]
30 µM: TGI [46]
8.8 µM: TGI [10]
> 47.7 µM: TGI [21]
active: GI50 [10] 0.228 µM | GI50 [13] 0.0183 µM | GI50 [14] 0.123 µM | GI50 [19] 0.0169 µM | GI50 [28] 0.204 µM | GI50 [30] 0.256 µM
inactive: GI50 [1] 2.25 µM | GI50 [2] 1.87 µM | GI50 [3] 17 µM | GI50 [4] 1.02 µM | GI50 [5] 3.72 µM | GI50 [6] 3.29 µM | GI50 [7] 6.39 µM | GI50 [8] 0.706 µM | GI50 [9] 7.83 µM | GI50 [11] 44.6 µM | GI50 [12] > 79.7 µM | GI50 [15] > 78.7 µM | GI50 [16] 40.3 µM | GI50 [17] > 100 µM | GI50 [18] > 73.7 µM | GI50 [20] > 100 µM | GI50 [21] 0.56 µM | GI50 [22] 30.7 µM | GI50 [23] 10.9 µM | GI50 [24] 14.7 µM | GI50 [25] > 100 µM | GI50 [26] 3.66 µM | GI50 [27] > 100 µM | GI50 [29] 17.4 µM | GI50 [31] 1.39 µM | GI50 [32] > 100 µM | GI50 [33] > 100 µM | GI50 [34] 26.9 µM | GI50 [36] 21 µM | GI50 [37] 2.5 µM | GI50 [38] 3.82 µM | GI50 [39] 1.72 µM | GI50 [40] 46.9 µM | GI50 [41] 22 µM | GI50 [42] > 84.8 µM | GI50 [43] > 33 µM | GI50 [44] 6.38 µM | GI50 [45] > 100 µM | GI50 [46] 1.38 µM | GI50 [47] > 100 µM | GI50 [48] 31.1 µM | GI50 [49] > 43.7 µM | GI50 [50] 0.625 µM | GI50 [51] > 100 µM | GI50 [52] > 100 µM | GI50 [53] > 64.6 µM | GI50 [54] > 90.3 µM | GI50 [55] 2.07 µM | GI50 [56] 15.2 µM | GI50 [57] 10.9 µM | GI50 [58] 0.804 µM | GI50 [59] 41.1 µM | GI50 [60] 2.88 µM
> 61.4 µM: TGI [37]
> 26.9 µM: TGI [6]
> 100 µM: TGI [1] | TGI [2] | TGI [3] | TGI [4] | TGI [5] | TGI [7] | TGI [8] | TGI [9] | TGI [11] | TGI [12] | TGI [15] | TGI [16] | TGI [17] | TGI [18] | TGI [20] | TGI [22] | TGI [23] | TGI [24] | TGI [25] | TGI [26] | TGI [27] | TGI [29] | TGI [32] | TGI [33] | TGI [34] | TGI [36] | TGI [38] | TGI [39] | TGI [40] | TGI [41] | TGI [42] | TGI [43] | TGI [45] | TGI [47] | TGI [48] | TGI [49] | TGI [51] | TGI [52] | TGI [53] | TGI [54] | TGI [55] | TGI [56] | TGI [57] | TGI [58] | TGI [59] | TGI [60]
0.145 µM: TGI [13]
